Laboratory results published in patent publication US20120100204A1, “TGF-Beta Stimulating Agent Compositions and Combinations” (TCP INNOVATIONS LTD, priority 2007, published 2012).
Marks after values point to notes of the source that are not given here.

Assays:
[1] = test system: anti-collagen type II antibodies; assay: direct ELISA for anti-collagen type II antibodies in serum of collagen-induced arthritis mice; assay type: in vivo; details: day 39
Method: Collagen-induced arthritis was induced in adult male DBA/1 mice as previously described (Courtenay et al. (1980) Nature 283:666-8). Adult (12 week old) male DBA/1 mice were divided into groups of six animals. Mice received 100 μg per mouse of bovine type II collagen (Sigma) in Freunds Complete Adjuvant (FCA) by the subcutaneous route, while a control group received an identical injection of type I collagen in FCA. Twenty-one days later, all groups of mice received an intraperitoneal booster injection containing 100 μg per mouse of the same collagen type as previously, but in the absence of adjuvant. […] Foodpad thickness was determined each day using a digital caliper EC1507 (Moore & Wright) accurate to 0.01 mm. The thickness of each footpad was determined three times on each day by a single operator blind to the treatment condition of the mouse, and the footpad thickness of each mouse on each day was reported as the mean for the three measurements for all four paws. Errors represent the standard error of the mean among the six animals in each group.
A direct ELISA for anti-collagen type II antibodies was used as an alternative assessment of the autoimmune response. Bovine type II collagen was coated onto Maxisorp 96-well ELISA plate wells (Nunc) at 1 μg/well in 50 μl of 50 mM sodium carbonate pH9.0 for 2 hours at 4° C. Wells were blocked with 5% Tween-20/5% sucrose in phosphate-buffered saline for 1 hour at room temperature. Mouse serum at various dilutions was incubated with the collagen-coated wells for 2 hours at room temperature. After three quick washes with tris-buffered saline +0.05% Tween-20, bound murine antibody was detected using a range of different anti-mouse IgG peroxidase conjugates (Pan-IgG A-9174 Sigma Chemical Co; IgA A-4789 Sigma Chemical Company; IgG1, G2a, G2b and G3 Southern Biotechnology) at 1:5000 dilution in tris-buffered saline +0.05% Tween-20 for 1 hour at room temperature. After three further washes, bound peroxidase label was visualised with K-BLUE chromogenic substrate (Skybio, Ltd.) for 20 minutes at room temperature, and the concentration of murine anti-collagen IgG in the serum quantitated by interpolating a standard curve constructed using known concentrations of the murine monoclonal anti-collagen type II IgG, CIICI (NIH Developmental Studies Hybridoma Bank).

[2] = test system: anti-carbohydrate antibodies; assay: anti-carbohydrate antibody isotype profile in serum of men with coronary artery disease, direct ELISA; assay type: in vivo, human; details: 3 months
Method: Blood samples were also taken at baseline, immediately prior to beginning the drug treatments, and also after 90 days. The blood was drawn from the antecubital fossa using 19-gauge butterfly needles, and dispensed into polypropylene tubes, where it was allowed to clot for between 2 and 3 hours at room temperature. The clot was released, and the sample spun (450×g; 4 mins), and the serum supernatant removed, aliquoted and stored frozen at −80° C. until analysed.
The level of anti-carbohydrate antibodies was measured by direct ELISA as previously described (Mosedale et al (2006) J. Immunol. Meth. 309:182-91). Briefly, Maxisop 96-well plates were coated with BSA-alpha-Gal (Glycorex) at 1 μg/well in 200 μl of Sodium Carbonate pH9.0 overnight at 4° C. After three quick washes with PBS, non-specific binding was blocked using 3% BSA in PBS at room temperature for 1 hour. After three further washes the serum was added at various dilutions ranging from neat to 1:100 dilution in PBS, then incubated for 2 hours at room temperature with shaking. The serum was then discarded, the plate washed 5 further times with PBS+0.1% Tween-20, and replicate strips (each containing a full range of dilutions of the same serum sample) were exposed to highly specific monoclonal antibodies to each isotype, including IgG1, IgG2, IgG3, IgG4, IgM, IgA, IgE and IgD, at 1 μg/ml in blocking buffer. After a further hour at room temperature with shaking, the antibody was discarded and the plate washed 3 further times with PBS/Tween, before being exposed to donkey anti-mouse IgG minimum cross reactivity, coupled to horseradish peroxidase (Jackson Immunoresearch), at 1 μg/ml in blocking buffer for a further 1 hour at room temperature with shaking. After a final 3 washes in PBS/Tween and single wash in PBS, 200 μl of K-blue chromogenic substrate was added to each well. After a carefully controlled period, accurate to 5 seconds, equal for all wells, the reaction was stopped by the addition of 50 μl 2M HCl and the colour read at 450 nm. Results are reported for each isotype as the mean titre (that is, the dilution of serum which yielded 50% of the maximal signal) as well as the mean signal at that titre (since the maximum absorbance in many cases was considerably below full scale deflection).
Blood samples were also taken at baseline, immediately prior to beginning the drug treatments, and also after 90 days, and serum prepared exactly as in Example 5. The level of anti-carbohydrate antibodies was then measured by direct ELISA using the procedure given in Example 5.

[3] = pro-thrombin time (PTT) in men with coronary artery disease; details: men with coronary heart disease, 3 months, Tamoxifen 20 mg once daily, vs baseline
Method: Patients continued with all other medications (statins, ACE inhibitors, beta blockers, calcium channel blockers, diuretics etc), but no patients were taking warfarin or tirofiban.
The coagulant status of the individuals was assessed using the pro-thrombin time (PTT, measured clinically; Hinchingbrooke Hospital, UK). PTT was measured twice, one week apart, prior to beginning the study, and then after 90 days treatment. In each case, each patient acted as their own control, and the impact of the treatment on PTT was assessed using a paired Student's t-test comparing the PTT at 90 days with the average of the two baseline determinations.

[4] = translated from the relative risk; cited from earlier work
[5] = test system: TGF-beta activity; assay: TGF-beta activity by effect on SMC proliferation (CPD) with and without neutralising anti-TGF-beta antibody; assay type: cell-based, human; details: 0 μM T, 72 hrs
Method: (1995) Cardiovasc. Res. 29:848-55). […] The cells were then incubated for either 24 hrs or 72 hrs depending on the experiment. All treatment conditions were established in triplicate. Finally, TGF-beta activity was estimated by the direct effects on smooth muscle cell proliferation within the assay. For these experiments, the test agents were added, in triplicate, to cells both in the presence and absence of a neutralising antibody to TGF-beta (AB-100-NA; […] R&D Systems). After 72 hrs incubation, the cells are washed and then released completely using 0.02% trypsin/EDTA (Gibco) at 37° C. for 10 mins, then counted manually using a haemocytometer. Importantly, the number of cells at 0 hrs must also be determined (using the same counting method, on a replicate set of three wells plated out specifically for the purpose). For each treatment condition, the TGF-beta-dependent inhibition of proliferation is expressed as the fold increase in the cumulative population doubling time in the absence of the neutralising antibody compared to the cumulative population doubling time in the presence of the neutralising antibody. […] Failure of either control led to the repeat of the experiment.

[6] = Tamoxifen 20 mg once daily, aspirin 75 mg once daily, mean ± SD
[7] = neat serum, Tamoxifen 20 mg once daily, aspirin 75 mg once daily, mean ± SD

## CC/C(=C(\c1ccccc1)c1ccc(OCCN(C)C)cc1)c1ccccc1 [Tamoxifen]
[1]; DBA/1 mice with collagen-induced arthritis
  Pan IgG binding to bovine collagen II, median concentration in serum: 181 µg/mL
[1]; neat serum
  IgG1 binding to bovine collagen II, median absorbance: <0.05*
  IgG2a binding to bovine collagen II, median absorbance: 0.081*
  IgG2b binding to bovine collagen II, median absorbance: 0.482*
  IgG3 binding to bovine collagen II, median absorbance: 0.069*
[2]; [6]
  IgA titre, change versus baseline: +14% ± 52%
  IgD titre, change versus baseline: −234% ± 113%
  IgG2 titre, change versus baseline: +176% ± 43%
  IgM titre, change versus baseline: +16% ± 28%
[2]; Example 6
  absorbance of the IgA class anti-carbohydrate antibodies (in words): statistically significantly increased
  titre of IgD class anti-carbohydrate antibodies (in words): statistically significantly reduced
  titre of the IgG2 class anti-carbohydrate antibodies (in words): statistically significantly increased
[2]; [7]
  IgA Absorbance, change versus baseline: 0.31 ± 0.17
  IgD Absorbance, change versus baseline: −0.82 ± 0.51
  IgG2 Absorbance, change versus baseline: +0.61 ± 0.17
  IgM Absorbance, change versus baseline: −0.29 ± 0.36
[3]; Example 5, aspirin 75 mg once daily
  change in pro-thrombin time: +17%
[3]; Example 6, clopidogrel 75 mg once daily
  change in pro-thrombin time: +19%
[4]
  reduction in risk of death from myocardial infarction: 33%

## CC(=O)Oc1ccccc1C(=O)O [Aspirin, acetylsalicylic acid]
[5]; 10 μM A
  TGF-beta activity: ratio of CPD in the absence and presence of neutralising anti-TGF-beta antibody: 1.05 ± 0.09 fold
[5]; 33 μM A
  TGF-beta activity: ratio of CPD in the absence and presence of neutralising anti-TGF-beta antibody: 1.13 ± 0.17 fold
[5]; 100 μM A
  TGF-beta activity: ratio of CPD in the absence and presence of neutralising anti-TGF-beta antibody: 1.25 fold
[5]; 100 μM A, listed as A
  TGF-beta activity: ratio of CPD in the absence and presence of neutralising anti-TGF-beta antibody: 1.25 ± 0.06 fold
